From US20210108199A1, “Treatment for aggressive cancers by targeting C9ORF72” (The Trustees of Columbia University in the City of New York, priority 2017, published 2021)

Legend:
Format in all cases: cell-based
U87 cells [1] = assay: Mitochondrial imaging (MitoTracker) and MiNA quantitation
Protocol: Mitchondria imaging in U87 cell was performed with MitoTracker™ Red CMXRos (ThermoFisher™, M7512) according to the manufacturer's protocol. Cells then were imaged as described herein.
Quantitation was performed using a publicly available macro MiNA for ImageJ™ as described.
The vacuoles were studied to investigate whether they are swollen mitochondria, because several reports observed vacuolated mitochondria in ALS patients and mice models that resemble the phenotype seen here. A fluorescent mitochondrial dye was used to visualize mitochondria upon C9 KD. […] See FIG. 5A and FIG. 5B, which show an IF image of U87 cells treated as in Example 1 and stained with MitoTracker (red) and nuclei stained with DAPI (blue).
To obtain the data seen in FIG. 6, the stained mitochondria from FIG. 5 were IF stained and analyzed using MiNA software for ImageJ™.

U87 cells [2] = assay: ROS detection by dihydroethidium; conditions: day three
Protocol: ROS detection in U87 cells was performed using 2′,7′-dichlorofluorescin diacetate (Sigma™, D883). Cells were treated with control and siC9 siRNA. After 3 days, cells were washed with phenol red-free DMEM (ThermoFisher™, 21063029). Cells then were incubated with 20 μM DCFDA for 40 minutes at 37° C. Cells then were washed with phenol red-free DMEM. Then signal was read at Ex/Em: 485/535 nm using Synergy H1 Hybrid™ Multi-Mode Microplate reader by Biotek™. Quantitation was done after removal of background. Additionally, dihydroethidium (EMD Millipore™ 309800) was used. U87 cells were treated as described above. At day 3, cells were incubated with DHE for 30 minutes at 37° C. […]
For the above reasons, whether C9 KD may lead to increase ROS production was investigated. […] C9 was knocked down in U87 cells with two independent siRNAs and the ROS levels were measured after KD. […]
For the data presented in FIG. 21, U87 cells were treated with control (siCtrl) and C9 (siC9; SEQ ID NO:631) siRNA and on day three ROS levels measured by DCFDA and dihydroethidium. FIG. 21A presents data for fluorescent intensity between control (siCtrl) and C9 KD (siC9) cells as measured by DCFDA. […] FIG. 21C presents fluorescent intensity quantitation for about 30 cells from the dihydroethidium experiments (n=3). Statistical significance was assessed by an unpaired t-test: NS P>0.05, *P≤0.05, **P≤0.01, ***P≤0.001 ****P≤0.0001. […]

U87 cells [3] = assay: TUNEL assay for DNA breaks; conditions: vs control
Protocol: Cells were treated with control and C9 siRNA for three days. On day three, cells were collected for TUNEL assay using the FlowTACS kit (TREVIGEN™, 4817-60-K) according to manufacturer's instructions to detect DNA fragmentation. For a positive control, DNA damage was induced using doxorubicin. Data were collected on a FACSCalibur™ flow cytometer (Becton Dickinson™) and data analysis performed on FlowJo™.
ROS can cause oxidative DNA damage. Since elevated ROS levels were observed under C9 KD conditions, it may cause increase in DNA damage. To test this hypothesis, a TUNEL assay was used to measure DNA breaks. […] In addition to C9KD, U87 cells were treated with a known chemotherapeutic DNA damage-inducing drug to serve as a positive control for DNA damage (see FIG. 23). FIG. 23 presents data for the TUNEL assay of U87 cells treated as described for FIG. 21 and for positive DNA-damage control with 0.5 μM doxorubicin (DOX). FIG. 23A presents data for the percentage of cells with DNA fragmentation (shown by DNA damage) comparing control (siCtrl) C9 KD (siC9; SEQ ID NO:631) and DOX-treated cells as measured by FACS analysis. […] FIG. 24 is a set of graphs showing data for cells treated as described for FIG. 23, with the exception of using a different C9 siRNA, indicated as siC9 #2 (SEQ ID NO:633).

p53 null U87 cells = assay: qRT-PCR in p53 null U87 KO #4 cells
Protocol: For most RNA experiments, RNA was isolated from cells using the Qiagen™ RNeasy minikit. Complementary DNA was generated using the Qiagen™ Quantitect™ reverse transcription kit with 0.5 μg of input RNA as measured with a NanoDrop spectrophotometer (Thermo Scientific™). Real-time PCR was carried out on an ABI StepOne Plus™ machine using power SYBR Green dye (Thermo Scientific™). Transcript levels were assayed in triplicate and normalized to RPL32 and HPS90 mRNAs. Relative changes in cDNA levels were calculated using the comparative Ct method (ΔΔCT method). All RT-qPCR primers were designed with Primer3Plus™ or retrieved from Primerbank™. Primer sequences are listed here, including in Table 3. All primers were purchased from Life Technologies™. H. Generation of p53 Knock Out U87 Cell Lines by CRISPR
See FIG. 32, which presents RT-qPCR analysis of C9ORF72, CDKN1A (p21), PUMA, MDM2 and PARP1 mRNA levels in U87 KO #4 cells treated with control (siCtrl) and C9 (siC9; SEQ ID NO:631) siRNA. These experiments were performed in three biological replicates (n=3) and error bars represent S.E.M. Statistical significance was assessed by unpaired t-test: NS P>0.05, *P≤0.05, **P≤0.01, ***P≤0.001 ****P≤0.0001.

U87 p53 null KO #4 cells = assay: Vacuoles in p53 null cells transfected with HA tagged wtp53; conditions: U87 p53 null KO #4 cells transfected with HA tagged wtp53
Protocol: To provide further evidence of p53 involvement in vacuolization, it was tested whether p53 transfection into p53 null cell lines in C9 KD background induced accumulation of vacuoles. […] In FIG. 36A, phase contrast images (40×) are shown of U87 p53 null KO #4 cells that were transfected with HA tagged wtp53 and then treated with control (siCtrl) or C9 (siC9; SEQ ID NO:631) siRNA. The black boxes show the location of the zoomed in images below with black arrows pointing to vacuoles. […] FIG. 36C is a graph that presents quantitation of data from about 100 cells, indicating the number of vacuoles per cell for conditions described above. Statistical significance was assessed by unpaired t-test: NS P>0.05, *P≤0.05, **P≤0.01, ***P≤0.001 ****P≤0.0001.

siC9: siRNA targeting C9 mRNA: UUAAUGAAACAAUAAUCACUC (SEQ ID NO:631; sense) and GUGAUUAUUGUUUCAUUAAUC (SEQ ID NO:632; antisense) (listed as RNA, chemistry not given here)
total amount of individual and networked mitochondria staining (U87 cells [1]; MiNA): increased | mitochondrial dye staining of vacuoles (U87 cells [1]; MitoTracker): did not stain red | mitochondrial network organization (U87 cells [1]; vs control): significant mitochondrial network disorganization | ROS (dihydroethidium) (U87 cells [2]): significant upregulation of ROS | DNA breaks (TUNEL) (U87 cells [3]): increase in DNA breaks | PUMA and MDM2 mRNA (p53 null U87 cells; p53 null U87 KO #4 cells): lower levels | p21 mRNA (p53 null U87 cells; p53 null U87 KO #4 cells): did not result in a significant change | PARP1 mRNA (p53 null U87 cells; p53 null U87 cells): repression was also observed | vacuoles per cell (U87 p53 null KO #4 cells): significant increase
